# What was measured:
# [1] = Permeability from basolateral to apical side in human Caco2 cells by HPLC-MS/MS method; type: ADME, cell-based; conditions: Caco-2, read-out: permeability
# [2] = Permeability from apical to basolateral side in human Caco2 cells by HPLC-MS/MS method; type: ADME, cell-based; conditions: Caco-2, read-out: permeability
# [3] = Mean residence time in Wistar rat at 0.4 mg/kg, iv by HPLC-MS/MS method; type: ADME, organism-based; design: dose 0.4 mg/kg, route intravenous; conditions: in vivo
# [4] = Volume of distribution at steady state in Wistar rat at 0.4 mg/kg, iv by HPLC-MS/MS method; type: ADME, organism-based; design: dose 0.4 mg/kg, route intravenous; conditions: in vivo, read-out: Vdss
# [5] = Oral bioavailability in Wistar rat at […] by HPLC-MS/MS method; type: ADME, organism-based; conditions: in vivo
compound,measurement,setting,value
CC(C)(C)c1cc(NC(=O)[C@@H]2CCCCN2C(=O)N2CCS(=O)(=O)CC2)no1,Papp B→A,[1],22 ×10⁻⁶ cm/s
same,Papp A→B,[2],20 ×10⁻⁶ cm/s
same,MRT,[3],36 min
same,Vd,[4],0.5 L/kg
same,bioavailability,[5],62%
